The structures appear in SMILES notation. Read-outs that look alike come from different tables or passages of the source.

In one test the test system is cyclin D1. The test can be described thus: Cyclin D1 percentage degradation in Calu-1 cells (immunoblotting). Type of test: cell-based. Particulars: 16 hours. How it is done: (§1) […] A: protein percentage degradation >=80%; B: protein percentage degradation <80%, and >=50%; C: protein percentage degradation <50%, and >=30%; D: protein percentage degradation <30%.
(§2) Cultured cells were washed with cold PBS once and lysed in cold RIPA buffer supplemented with protease inhibitors and phosphatase inhibitors (Beyotime Biotechnology). The solutions were then incubated at 4° C. for 30 min with gentle agitation to fully lysed cells. Cell lysates were centrifuged at 13,000 rpm for 10 min at 4° C. and pellets were discarded. Total protein concentrations in the lysates were determined following BCA assays (Beyotime Biotechnology). Cell lysates were mixed with Laemmli loading buffer and heated at 99° C. for 5 min. Proteins were resolved on SDS-PAGE and visualized using Western ECL Substrate kits on a ChemiDoc MP Imaging system (Bio-Rad). Protein bands were quantitated using the Image Lab software provided by Bio-Rad.

Another test concerns the target T1, CDK4 (Homo sapiens, UniProt P11802).
T1 construct: endogenous in cells; host or cells: Calu-1
The test can be described thus: CDK4 percentage degradation in Calu-1 cells (immunoblotting). To be noted: for inhibition at 0.2 µM: read-out: CDK4 Degradation (200 nM); for inhibition at 10 µM: read-out: CDK4 Degradation (10 μM). Type of test: cell-based. The method, then: as §1, §2

T1 sequence (P11802 2-303 limits assumed): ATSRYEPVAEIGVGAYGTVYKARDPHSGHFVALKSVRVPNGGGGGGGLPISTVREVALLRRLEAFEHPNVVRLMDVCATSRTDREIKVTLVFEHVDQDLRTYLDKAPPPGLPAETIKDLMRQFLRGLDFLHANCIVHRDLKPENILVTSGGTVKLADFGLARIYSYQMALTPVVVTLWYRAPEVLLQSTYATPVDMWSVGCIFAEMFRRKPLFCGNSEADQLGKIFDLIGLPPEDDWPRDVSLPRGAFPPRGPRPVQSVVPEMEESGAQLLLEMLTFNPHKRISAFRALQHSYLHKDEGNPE
T1 sequence (P24385 whole entry partner): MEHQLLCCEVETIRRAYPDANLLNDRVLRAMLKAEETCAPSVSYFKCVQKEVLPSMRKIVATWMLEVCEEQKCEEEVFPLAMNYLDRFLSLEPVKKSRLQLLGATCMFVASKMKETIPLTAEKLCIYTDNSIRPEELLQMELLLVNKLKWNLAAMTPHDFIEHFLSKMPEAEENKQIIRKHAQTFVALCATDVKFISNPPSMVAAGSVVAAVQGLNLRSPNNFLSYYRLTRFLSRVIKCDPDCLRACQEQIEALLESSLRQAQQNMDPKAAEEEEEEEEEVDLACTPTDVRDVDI
T1 sequence (Q16531 2-1140 limits assumed, further chain): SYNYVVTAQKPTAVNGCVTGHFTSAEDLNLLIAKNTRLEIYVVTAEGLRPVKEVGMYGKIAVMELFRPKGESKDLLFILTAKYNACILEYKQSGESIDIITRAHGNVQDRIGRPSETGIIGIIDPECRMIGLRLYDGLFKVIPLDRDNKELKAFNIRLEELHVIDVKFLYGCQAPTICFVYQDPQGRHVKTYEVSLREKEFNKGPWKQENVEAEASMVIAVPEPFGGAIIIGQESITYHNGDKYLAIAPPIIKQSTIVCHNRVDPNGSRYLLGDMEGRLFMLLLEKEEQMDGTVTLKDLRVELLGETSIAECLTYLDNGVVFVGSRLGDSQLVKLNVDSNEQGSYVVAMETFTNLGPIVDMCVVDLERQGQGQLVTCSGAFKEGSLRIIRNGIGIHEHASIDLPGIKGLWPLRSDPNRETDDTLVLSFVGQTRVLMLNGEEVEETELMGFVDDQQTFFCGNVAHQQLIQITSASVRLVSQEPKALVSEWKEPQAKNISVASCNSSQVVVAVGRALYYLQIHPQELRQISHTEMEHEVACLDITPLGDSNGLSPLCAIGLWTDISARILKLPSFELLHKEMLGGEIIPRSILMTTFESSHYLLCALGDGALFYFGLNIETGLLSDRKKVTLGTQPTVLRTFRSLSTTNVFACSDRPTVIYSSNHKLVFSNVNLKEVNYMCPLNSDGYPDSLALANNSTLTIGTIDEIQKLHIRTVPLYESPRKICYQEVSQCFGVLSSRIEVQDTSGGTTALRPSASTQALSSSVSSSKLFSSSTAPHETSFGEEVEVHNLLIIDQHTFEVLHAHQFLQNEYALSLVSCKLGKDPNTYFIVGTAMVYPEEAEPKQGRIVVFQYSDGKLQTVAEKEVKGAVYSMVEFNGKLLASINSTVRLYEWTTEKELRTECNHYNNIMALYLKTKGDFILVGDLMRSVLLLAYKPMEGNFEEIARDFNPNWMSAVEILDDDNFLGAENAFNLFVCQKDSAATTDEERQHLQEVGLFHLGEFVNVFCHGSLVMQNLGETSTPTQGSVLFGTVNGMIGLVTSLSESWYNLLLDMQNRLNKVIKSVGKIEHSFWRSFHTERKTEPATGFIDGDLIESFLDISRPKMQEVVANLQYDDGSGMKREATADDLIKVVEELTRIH

`CC(=O)c1c(C)c2cnc(Nc3ccc(N4CCN(CC(=O)NCCOCCOCCOCCOCCOCCNC(=O)COc5ccc(C(=O)Nc6ncc(C)s6)c(C)c5)CC4)cn3)nc2n(C2CCCC2)c1=O` [CPD-019, 4-((23-(4-(6-((6-Acetyl-8-cyclopentyl-5-methyl-7-oxo-7,8-dihydropyrido[2,3-d]pyrimidin-2-yl)amino)pyridin-3-yl)piperazin-1-yl)-2,22-dioxo-6,9,12,15,18-pentaoxa-3,21-diazatricosyl)oxy)-2-methyl-N-(5-methylthiazol-2-yl)benzamide]: the “CyclinD1 Degradation (200 nM)” value with cyclin D1 is listed as “D (protein percentage degradation <30%)”. The inhibition at 0.2 µM on CDK4 (Calu-1 cells, 200 nM, 16 hours) was < 30%.
As for `CC(=O)c1c(C)c2cnc(Nc3ccc(N4CCN(CC(=O)NCCCCCCCCCNC(=O)c5ccc(C(=O)Nc6ncc(C)s6)c(C)c5)CC4)cn3)nc2n(C2CCCC2)c1=O` [CPD-024, N^4-(9-(2-(4-(6-((6-Acetyl-8-cyclopentyl-5-methyl-7-oxo-7,8-dihydropyrido[2,3-d]pyrimidin-2-yl)amino)pyridin-3-yl)piperazin-1-yl)acetamido)nonyl)-2-methyl-N^1-(5-methylthiazol-2-yl)terephthalamide], the “CyclinD1 Degradation (200 nM)” value in the test on cyclin D1 is “D (protein percentage degradation <30%)”. Further, at CDK4 (Calu-1 cells, 200 nM, 16 hours), the inhibition at 0.2 µM was < 30%.
Consider `CCCCNc1ccc(NC(=O)CCOCCOCCNC(=O)CN2CCN(c3ccc(Nc4ncc5c(C)c(C(C)=O)c(=O)n(C6CCCC6)c5n4)nc3)CC2)c(C(=O)Nc2nc(C)c(C)s2)c1` [CPD-148, 2-(3-(2-(2-(2-(4-(6-((6-Acetyl-8-cyclopentyl-5-methyl-7-oxo-7,8-dihydropyrido[2,3-d]pyrimidin-2-yl)amino)pyridin-3-yl)piperazin-1-yl)acetamido)ethoxy)ethoxy)propanamido)-5-(butylamino)-N-(4,5-dimethylthiazol-2-yl)benzamide], for which the “CyclinD1 Degradation (200 nM)” value with cyclin D1 is recorded as “D (protein percentage degradation <30%)”. Besides, the inhibition at 0.2 µM on CDK4 (Calu-1 cells, 200 nM, 16 hours) is < 30%.
In the same order, the values of `CC(=O)c1c(C)c2cnc(Nc3ccc(N4CCN(CC(=O)NCCCCCCCCC(=O)Nc5ccccc5C(=O)Nc5nc(C)c(C)s5)CC4)cn3)nc2n(C2CCCC2)c1=O` [CPD-113, 2-(9-(2-(4-(6-((6-Acetyl-8-cyclopentyl-5-methyl-7-oxo-7,8-dihydropyrido[2,3-d]pyrimidin-2-yl)amino)pyridin-3-yl)piperazin-1-yl)acetamido)nonanamido)-N-(4,5-dimethylthiazol-2-yl)benzamide] are “A (protein percentage degradation >=80%)” and 50 to 80%.
For `CC(=O)c1c(C)c2cnc(Nc3ccc(N4CCN(CC(=O)NCCCCCNc5ccc(C)c(C(=O)Nc6nc(C)c(C)s6)c5)CC4)cn3)nc2n(C2CCCC2)c1=O` [CPD-116, 5-((5-(2-(4-(6-((6-Acetyl-8-cyclopentyl-5-methyl-7-oxo-7,8-dihydropyrido[2,3-d]pyrimidin-2-yl)amino)pyridin-3-yl)piperazin-1-yl)acetamido)pentyl)amino)-N-(4,5-dimethylthiazol-2-yl)-2-methylbenzamide] the same measures were “D (protein percentage degradation <30%)” and < 30%.
For `CC(=O)c1c(C)c2cnc(Nc3ccc(N4CCN(CC(=O)NCCOCCOCCOCCOCCOCCNc5ccc(C(=O)Nc6nc(-c7ccccc7)cs6)c(C)c5)CC4)cn3)nc2n(C2CCCC2)c1=O` [CPD-007, 4-((1-(4-(6-((6-Acetyl-8-cyclopentyl-5-methyl-7-oxo-7,8-dihydropyrido[2,3-d]pyrimidin-2-yl)amino)pyridin-3-yl)piperazin-1-yl)-2-oxo-6,9,12,15,18-pentaoxa-3-azaicosan-20-yl)amino)-2-methyl-N-(4-phenylthiazol-2-yl)benzamide] the same measures were “D (protein percentage degradation <30%)” and < 30%.
`Cc1nc(NC(=O)c2ccccc2NC(=O)CCCCNC(=O)CN2CCN(c3ccc(Nc4ncc5cc(C(=O)N(C)C)n(C6CCCC6)c5n4)nc3)CC2)sc1C` [CPD-289, 7-Cyclopentyl-2-((5-(4-(2-((5-((2-((4,5-dimethylthiazol-2-yl)carbamoyl)phenyl)amino)-5-oxopentyl)amino)-2-oxoethyl)piperazin-1-yl)pyridin-2-yl)amino)-N,N-dimethyl-7H-pyrrolo[2,3-d]pyrimidine-6-carboxamide]: in the test with cyclin D1, the “CyclinD1 Degradation (10 μM)” value is on record as “A (protein percentage degradation >= 80%)”. For the same compound, the inhibition at 10 µM at CDK4 (Calu-1 cells, 16 hours) is 30 to 50%.
As for `CC(=O)c1c(C)c2cnc(Nc3ccc(N4CCN(CC(=O)NCCOCCOCCC(=O)Nc5ccccc5C(=O)Nc5ncc(C)[nH]5)CC4)cn3)nc2n(C2CCCC2)c1=O` [CPD-064, 2-(3-(2-(2-(2-(4-(6-((6-Acetyl-8-cyclopentyl-5-methyl-7-oxo-7,8-dihydropyrido[2,3-d]pyrimidin-2-yl)amino)pyridin-3-yl)piperazin-1-yl)acetamido)ethoxy)ethoxy)propanamido)-N-(5-methyl-1H-imidazol-2-yl)benzamide], in the test on cyclin D1, the “CyclinD1 Degradation (200 nM)” value is “D (protein percentage degradation <30%)”. Further, the inhibition at 0.2 µM on CDK4 (Calu-1 cells, 200 nM, 16 hours) was < 30%.
For `CC(=O)c1c(C)c2cnc(Nc3ccc(N4CCN(CC(=O)NCCOCCOCCC(=O)Nc5ccccc5C(=O)Nc5ccc(C)s5)CC4)cn3)nc2n(C2CCCC2)c1=O` [CPD-065, 2-(3-(2-(2-(2-(4-(6-((6-Acetyl-8-cyclopentyl-5-methyl-7-oxo-7,8-dihydropyrido[2,3-d]pyrimidin-2-yl)amino)pyridin-3-yl)piperazin-1-yl)acetamido)ethoxy)ethoxy)propanamido)-N-(5-methylthiophen-2-yl)benzamide] the same measures were “A (protein percentage degradation >=80%)” and 50 to 80%.
In the case of `CC(=O)c1c(C)c2cnc(Nc3ccc(N4CCN(CC(=O)NCCOCCOCCOCCOCCOCCNc5ccc(C(=O)Nc6ccc(C)cc6)c(C)c5)CC4)cn3)nc2n(C2CCCC2)c1=O` [CPD-025, 4-((1-(4-(6-((6-Acetyl-8-cyclopentyl-5-methyl-7-oxo-7,8-dihydropyrido[2,3-d]pyrimidin-2-yl)amino)pyridin-3-yl)piperazin-1-yl)-2-oxo-6,9,12,15,18-pentaoxa-3-azaicosan-20-yl)amino)-2-methyl-N-(p-tolyl)benzamide], the “CyclinD1 Degradation (200 nM)” value with cyclin D1 is on record as “D (protein percentage degradation <30%)”. The inhibition at 0.2 µM at CDK4 (Calu-1, 16 h) was < 30%.
Take `Cc1nc(NC(=O)c2ccccc2NC(=O)CCOCCOCCOCCNC(=O)CN2CCN(c3ccc(Nc4ncc5cc(C(=O)N(C)C)n(C6CCCC6)c5n4)nc3)CC2)sc1C` [CPD-296, 7-Cyclopentyl-2-((5-(4-(15-((2-((4,5-dimethylthiazol-2-yl)carbamoyl)phenyl)amino)-2,15-dioxo-6,9,12-trioxa-3-azapentadecyl)piperazin-1-yl)pyridin-2-yl)amino)-N,N-dimethyl-7H-pyrrolo[2,3-d]pyrimidine-6-carboxamide]: in the test on cyclin D1, the “CyclinD1 Degradation (10 μM)” value was “A (protein percentage degradation >= 80%)”. The inhibition at 10 µM at CDK4 (Calu-1 cells, 16 hours) was 50 to 80%.
`CC(=O)c1c(C)c2cnc(Nc3ccc(N4CCN(CC(=O)NCCOCCOCCC(=O)Nc5ccccc5C(=O)Nc5ccc(C)nc5)CC4)cn3)nc2n(C2CCCC2)c1=O` [CPD-060, 2-(3-(2-(2-(2-(4-(6-((6-Acetyl-8-cyclopentyl-5-methyl-7-oxo-7,8-dihydropyrido[2,3-d]pyrimidin-2-yl)amino)pyridin-3-yl)piperazin-1-yl)acetamido)ethoxy)ethoxy)propanamido)-N-(6-methylpyridin-3-yl)benzamide]: the “CyclinD1 Degradation (200 nM)” value in the test with cyclin D1 was “A (protein percentage degradation >=80%)”. In addition, at CDK4 (Calu-1 cells, 200 nM, 16 hours), the inhibition at 0.2 µM is 50 to 80%.
For `CC(=O)c1c(C)c2cnc(Nc3ccc(N4CCN(CC(=O)NCC(=O)Nc5ccccc5C(=O)Nc5nc(C)c(C)s5)CC4)cn3)nc2n(C2CCCC2)c1=O` [CPD-180, 2-(2-(2-(4-(6-((6-Acetyl-8-cyclopentyl-5-methyl-7-oxo-7,8-dihydropyrido[2,3-d]pyrimidin-2-yl)amino)pyridin-3-yl)piperazin-1-yl)acetamido)acetamido)-N-(4,5-dimethylthiazol-2-yl)benzamide] the same measures were “D (protein percentage degradation <30%)” and < 30%.
With `CNc1ccc(C(=O)Nc2nc(C)c(C)s2)c(NCCCCCCCNC(=O)CN2CCN(c3ccc(Nc4ncc5c(C)c(C(C)=O)c(=O)n(C6CCCC6)c5n4)nc3)CC2)c1` [CPD-370, 2-((7-(2-(4-(6-((6-Acetyl-8-cyclopentyl-5-methyl-7-oxo-7,8-dihydropyrido[2,3-d]pyrimidin-2-yl)amino)pyridin-3-yl)piperazin-1-yl)acetamido)heptyl)amino)-N-(4,5-dimethylthiazol-2-yl)-4-(methylamino)benzamide], in the test on cyclin D1, the “CyclinD1 Degradation (200 nM)” value is recorded as “A (protein percentage degradation >=80%)”. Also, the inhibition at 0.2 µM on CDK4 (Calu-1 cells, 200 nM, 16 hours) is > 80%.
For `CC(=O)c1c(C)c2cnc(Nc3ccc(N4CCN(C(=O)CCOCCNc5ccc(C)c(C(=O)Nc6nc(C)c(C)s6)c5)CC4)cn3)nc2n(C2CCCC2)c1=O` [CPD-110, 5-((2-(3-(4-(6-((6-Acetyl-8-cyclopentyl-5-methyl-7-oxo-7,8-dihydropyrido[2,3-d]pyrimidin-2-yl)amino)pyridin-3-yl)piperazin-1-yl)-3-oxopropoxy)ethyl)amino)-N-(4,5-dimethylthiazol-2-yl)-2-methylbenzamide], in the test with cyclin D1, the “CyclinD1 Degradation (200 nM)” value is on record as “D (protein percentage degradation <30%)”. For the same compound, the inhibition at 0.2 µM at CDK4 (Calu-1, 16 h) was < 30%.

(Values after patent US20250235543A1, “MODIFIED PROTEINS AND PROTEIN DEGRADERS” (Cullgen (Shanghai), Inc., priority 2021, published 2025).)
